{"source": "patent US20090298108A1", "about": "“Method for Identifying PDE11 Modulators” (priority 2005, published 2009)", "test_system": "PDE11A4/CyaB1-chimera", "experiment": "Adenylate cyclase activity assay of PDE11A4/CyaB1-chimera (conversion of [α-32P]-ATP to cAMP)", "assay_type": "biochemical, human", "note": "“Also recorded” adds a separate entry of the source.", "data": [{"smiles": "Nc1nc2c(ncn2[C@@H]2O[C@@H]3COP(=O)(O)O[C@H]3[C@H]2O)c(=O)[nH]1", "note": "[cGMP]", "values": [{"measurement": "% basal value", "setting": "1 mM of cyclic nucleotide, relative to basal enzyme activity", "value": 400, "unit": "%"}, {"measurement": "Classification as PDE11A4-GAF agonist / antagonist", "setting": "from dose-effect curve, FIG. 5", "value": "PDE11A4-GAF agonist; also recorded: selectively activates the GAF domain of PDE11 as agonist"}]}]}
